Reference: PubChem BioAssay AID179 (DTP/NCI, 2004)
The source made the active and inactive calls.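 Rule for the calls: active = compounds giving half or more protection of infected cells from virus-caused growth loss, again on retest; inactive = the rest.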 Where a SMILES comes first, the peptide text is derived from it. [ ]: non-standard residue; d: D form. The star is where a group is joined. Chg = N[CH](C(=O)O)C1CCCCC1; Cbz = O=C(OCc1ccccc1)*; OBn = c1ccc(CO*)cc1

Tested on: CEM cells HIV-1 protection, formazan growth assay
Experiment: NCI AIDS Antiviral Assay
Details: for IC50: measured here: growth of uninfected CEM cells
Method in brief: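 Human CEM cells, uninfected and HIV-1-infected, exposed to five drug concentrations; growth measured by soluble formazan assay and scored as percent protection from infection, with protecting compounds retested.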

| Compound | EC50 [µM] | IC50 [µM] | outcome |
| --- | --- | --- | --- |
| O=C(O)c1ccc2c(c1)S(=O)(=O)NC2=O | > 1100 | > 1100 |  |
| CCOC(=O)C1C(=O)CC(O)(OCC)C(C(=O)OCC)C1c1ccc(OC)cc1 (configuration not stated) | > 200 | > 200 |  |
| CC(C)CCCC(C)[C@H]1CC[C@H]2[C@@H]3CC[C@H]4C[C@@H](CCC=C(c5cc(Cl)c(O)c(C(=O)O)c5)c5cc(Cl)c(O)c(C(=O)O)c5)CC[C@]4(C)[C@H]3CC[C@]12C (some centres not stated) (tested in a mixture with another compound) | > 100 | 40.7 |  |
| O=C1NN=C(c2c[nH]c3ccccc23)CC1NCc1ccccc1 (configuration not stated) | > 200 | > 200 |  |
| CCC1=CC(OCc2ccccc2)C(CCN(Cc2ccccc2)C(=O)OCc2ccccc2)C1 (configuration not stated) | > 200 | 9.55 |  |
| CC(C)[C@@H]1OC(=O)[C@@H](C)NC(=O)[C@@H]2CCCN2C1=O (HELM PEPTIDE1{[CC(C)[C@H](O[*:1])C(=O)[*:2]].P.[dA]}$PEPTIDE1,PEPTIDE1,1:R1-3:R2$$$V2.0) | > 200 | > 200 |  |
| Cn1c(C(O)(Cc2ccccn2)Cc2ccccn2)cc2ccccc21 | > 97.7 | 72.4 |  |
| COc1cc2c(cc1C1=NC(C)(C)CO1)OCO2 | > 1000 | > 1000 |  |
| O=c1oc2ccccc2n1P(=O)(N1CCOCC1)N1CCOCC1 | > 251 | > 251 |  |
| CN(C)CCCNC(=O)c1cc(NC(=O)c2cc(NC(=O)c3cc(NC(=O)c4ncccc4C(=O)O)cn3C)cn2C)cn1C | > 200 | > 200 |  |
| COc1cc2c(cc1OC)C1C=NC(C2)c2cc(OC)c(OC)cc21 (configuration not stated) |  |  | inactive |
| COC(=O)CCC1(C)C2CCC1/C(=N/O)C2 (configuration not stated) | > 200 | > 200 |  |
| CCOC(=O)c1oc2ccc(OC)c3c2c1CCC3 |  |  | inactive |
| COc1cc(OC)cc(-n2c(N)c(C#N)c3ccc([N+](=O)[O-])cc3c2=O)c1 | > 200 | > 200 |  |
| C/C(=N\NC(=S)N1CCN(c2ccccn2)CC1)c1cccc(C)n1 | > 42.7 | 0.0155 |  |
| O=C1OC2(CCCCC2)c2ccccc21 | > 339 | 186 |  |
| CC(C)(C)C(=O)C(Cc1ccccc1)C(=O)C(C)(C)C |  |  | inactive |

| Compound | EC50 [µM] | IC50 [µM] | outcome |
| --- | --- | --- | --- |
| CCOC(=O)C1C2CCC(C2)C1(CCl)C(=O)OCC (configuration not stated) | > 251 | > 251 |  |
| CC(C)C(/C=C/c1ccc(Br)cc1)=N\NC(N)=O | > 32.4 | > 32.4 |  |
| CN(C(=O)C1=CCCCCC1)c1ccccc1Br | > 813 | 389 |  |
| COc1ccc(/C(C#N)=C/c2ccccc2)cc1 | > 200 | 10.7 |  |
| COC(=O)C(NC(=O)C(CC(=O)OCc1ccccc1)NC(=O)OCc1ccccc1)C1CCCCC1 (configuration not stated) (Cbz-Asp(OBn)-[Chg]-OMe; configuration not given here) | > 200 | 105 |  |
| C=C(C)C1CC=C(C)C(O)([C@@]2(O)C[C@H](C(=C)C)CC=C2C)C1 (some centres not stated) |  |  | inactive |
| C=CCN1C(=O)C(=O)N(CC=C)C(=O)C1=O |  |  | inactive |
| CCCNC1=C(Cl)C(=O)c2ccccc2C1=O | > 145 | 26.3 |  |
| O=C(NC1CCCCC1)/C(=C\c1ccccc1)NC(=O)c1ccccc1 | > 200 | > 200 |  |
| CCCCn1c2ccccc2c2ccc3c(c21)C(=O)C=CC3=O | > 17.4 | > 17.4 |  |
| O=[N+]([O-])c1ccccc1S(=O)c1ccccc1 (configuration not stated) | 6.76 | 22.4 |  |
| CC(C)(CCCCC(C)(C)NCC1COc2ccccc2O1)NCC1COc2ccccc2O1 (configuration not stated) | > 200 | 7.24 |  |
| CCC12CCC[C@@]13C=C[C@H](O3)C(C)(C)C2=O (some centres not stated) |  |  | inactive |
| CC1=C(C(=O)Nc2cc(F)c(F)cc2F)C(c2ccc(N(C)C)cc2)C(C(=O)Nc2cc(F)c(F)cc2F)=C(C)N1 | > 23.4 | > 23.4 |  |
| O=c1[nH]nc2c3n[nH]c(=O)n3c3ccccc3n12 | > 14.8 | > 14.8 |  |
| Brc1ccc(C2CC(c3cccc4ccccc34)=Nc3ccccc3S2)cc1 (configuration not stated) | > 11.7 | > 11.7 |  |
| COc1ccc(/C=N/Nc2nnc3c(n2)[nH]c2ccc(Br)cc23)cc1 | > 200 | > 200 |  |
